The conditions of this series: 101.33 kPa, Liquid; for speed of sound: Sing-around technique in a fixed-path interferometer; for mass density: Vibrating tube method.

Numbers after ± are expanded uncertainties.

For orientation: speed of sound means how fast a sound wave travels through the sample. Broadly, the mass density is the mass of a sample divided by its volume.

In the case of `Cc1ccccc1C` [1,2-dimethylbenzene], the speed of sound (298.15 K) is given as 1348.2 ± 0.92 m/s and the speed of sound (308.15 K) is recorded as 1308.2 ± 0.91 m/s. The mass density is, setting by setting: (298.15 K) 875.363 ± 0.12 kg/m3; (308.15 K) 866.507 ± 0.13 kg/m3.
Take `CCc1ccccc1` [ethylbenzene]: under “298.15 K”, the speed of sound was 1318.6 ± 0.91 m/s and the mass density stood at 862.433 ± 0.13 kg/m3. Besides, where the note is “308.15 K”, the speed of sound amounted to 1277.5 ± 0.89 m/s and the mass density is given as 853.607 ± 0.13 kg/m3.

The record behind these values is the NIST ThermoML archive (doi:10.1016/j.jct.2012.10.023).
